The target in test [1] is T1, D211N Ty1 RT (Saccharomyces cerevisiae, UniProt P47098, D1428N).
T1 sequence (P47098 1218-1755 D1428N): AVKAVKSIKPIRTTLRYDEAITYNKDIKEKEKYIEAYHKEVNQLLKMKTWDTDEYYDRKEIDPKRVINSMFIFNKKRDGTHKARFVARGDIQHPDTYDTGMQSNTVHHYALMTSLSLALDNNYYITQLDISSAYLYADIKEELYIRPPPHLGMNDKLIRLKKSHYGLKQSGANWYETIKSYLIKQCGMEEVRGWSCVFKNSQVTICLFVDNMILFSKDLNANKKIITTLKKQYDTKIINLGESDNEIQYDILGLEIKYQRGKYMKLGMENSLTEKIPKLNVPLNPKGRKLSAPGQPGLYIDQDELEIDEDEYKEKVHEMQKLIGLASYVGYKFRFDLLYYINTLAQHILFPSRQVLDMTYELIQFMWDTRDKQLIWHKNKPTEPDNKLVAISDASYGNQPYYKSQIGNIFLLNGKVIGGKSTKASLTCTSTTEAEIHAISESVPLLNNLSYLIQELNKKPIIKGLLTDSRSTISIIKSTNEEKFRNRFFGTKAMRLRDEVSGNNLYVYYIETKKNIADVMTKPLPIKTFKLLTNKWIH
In words: RT assay on purified RT, metal ion competition and metal activation kinetics. The text has this: Plasmid constructions. Plasmid c24-2I was generated by ligating the Stu I -Avr II fragment (4.3 kb) of c24-2 with the Sma I—Xba I fragment (6.0 kb) of pRS415 (LEU2 CEN6; Sikorski and Hieter, Genetics 122: 19-27, 1989, which is incorporated herein by reference). To simplify the cloning of the single amino-acid-substitution mutations into the PMR1 gene, c24-2L was constructed by removing the Xho I—Nde I fragment (1.2 kb) from c24-2I, filling in the ends with Klenow (New England Biolabs; Beverly Mass.), and ligating the blunt ends to recircularize the plasmid. Alanine substitution mutations, D778A and Q783A, were generated in the native PMR1 gene by replacing the Pst I—Sal I fragment (1.1 kb) of c24-2L with the corresponding fragment harboring the respective Pmr1p substitution mutation in the YEpHR1 backbone (Wei et al., J. Biol. Chem. 275: 23927-23932, 2000, which is incorporated herein by reference). The D53A substitution mutation was introduced into c24-2L by swapping in the Xba I fragment (0.3 kb) containing the Pmr1p substitution mutation in the YEpHR1 backbone (Wei et al., supra, 1999). Recombinant Ty1 RT (Wilhelm et al., supra, 2000) was PCR amplified and subcloned into the BamH I and Xho I sites of pGEX-4T-3 (Amersham Pharmacia Biotech; Piscataway N.J.). The D211N substitution mutation was generated by replacing the Sph I-Hind III fragment (0.4 kb) of the wild-type Ty1 RT expression construct with that of pJEF724 DD-DN (Uzun and Gabriel, supra, 2001).
(§1) VLP isolation and analysis. Yeast cells harboring pGTy1-H3-mhis3AI were grown in 2% galactose at 22° C. for approximately 24 hr. Cell pellets from these 0.5 L cultures were resuspended in 5 ml buffer B (Eichinger and Boeke, Cell 54: 955-966, 1988, which is incorporated herein by reference) and VLPs were isolated. […] Reactions were set up on ice, carried out for 1 hr at 22° C. and kept on ice while being spotted onto DE81 anion-exchange paper (Whatman International Ltd.; Maidstone, England).
(§2) Protein purification and analysis. Recombinant Ty1 RT (Wilhelm et al., supra, 2000) containing a cleavable N-terminal GST-tag was expressed in E. coli and purified first by affinity chromatography and then by ion exchange chromatography, as described for HIV-1 RT (Le Grice et al., Meth. Enzymol. 262: 130-44, 1995, which is incorporated herein by reference). The GST-tagged protein was eluted from a Glutathione Sepharose 4B™ gel (Amersham) gravity column with buffer (50 mM HEPES-KOH, pH 7.8, 200 mM KCl, 10% glycerol and 2 mM DTT) containing 30 mM reduced glutathione. 50 mM HEPES-KOH, pH 7.0 with 10% glycerol was added to the protein solution to lower the pH to 7.1 and the KCl concentration to 25 mM. The recombinant Ty1 RT was further purified over a Resource S™ (Amersham) cation-exchange column using a linear KCl gradient (25-500 mM). […] Purified hetero-dimeric HIV-1 RT (Le Grice et al., supra, 1995) was acquired through the AIDS Research and Reference Reagent Program, Division of AIDS, NIAID, NIH. Purified AMV RT was purchased from Roche Molecular Biochemicals (Mannheim, Germany). The RT assays performed on the purified RTs were carried out as described above, except in the presence of 20 mM KCl, and HIV-1 RT assays were incubated at 37° C. Each reaction contained 45 ng of purified recombinant Ty1 RT or 30 ng of heterodimeric HIV-1 RT.

Test [2] deals with T2, Ty1 RT (Saccharomyces cerevisiae, UniProt P47098).
T2 sequence (P47098 1218-1755 limits assumed): T1 sequence (P47098 1218-1755 D1428N) with N211D
The following applies: for Proposed activity of Ty1 RT, same metal at A site and B site: same ion at A site and B site.

The target in test [3] is T3, wild-type Ty1 RT (Saccharomyces cerevisiae, UniProt P47098).
T3 sequence (P47098 1218-1755 limits assumed): T1 sequence (P47098 1218-1755 D1428N) with N211D
In words: biochemical. Here is the method:
as §1, §2

In test [4] the target is Ty1 RT (Saccharomyces cerevisiae, UniProt P47098, D1428N). The following applies: Mn^2+ at A site, Mg^2+ at B site; unlikely for Wt.
Test [5] has as its system AMV RT. The following applies: purified AMV RT; excess Mg^2+. Here is the method:
as §1, §2

Test [6] deals with M-MuLV RT. The following applies: purified M-MuLV RT, with or without its associated RNase H. Here is the method:
as §1, §2

The target of test [7] is hetero-dimeric HIV-1 RT (Human immunodeficiency virus type 1 group M subtype B, UniProt P04585). The following applies: purified hetero-dimeric HIV-1 RT; poly(rC) template; excess Mg^2+; 37° C. Here is the method:
as §1, §2

Test [8] addresses Ty1 VLPs (Saccharomyces cerevisiae, UniProt P47098). Here is the method: as §1
Where [9] appears, read: D211N Ty1 RT, fit to Hill equation.
The mark [10] stands for this setting: Wt. Ty1 RT, fit to Hill equation.

Where a chain is given by its changes, count along the chain named.

Here are results for three molecules from patent publication US7601489B2, “Manganese ion regulation of reverse transcriptase activity and methods of modulating same” (The Johns Hopkins University, priority 2002, dated 2009).

Chain of Ty1 VLPs (P47098 1218-1755 limits assumed): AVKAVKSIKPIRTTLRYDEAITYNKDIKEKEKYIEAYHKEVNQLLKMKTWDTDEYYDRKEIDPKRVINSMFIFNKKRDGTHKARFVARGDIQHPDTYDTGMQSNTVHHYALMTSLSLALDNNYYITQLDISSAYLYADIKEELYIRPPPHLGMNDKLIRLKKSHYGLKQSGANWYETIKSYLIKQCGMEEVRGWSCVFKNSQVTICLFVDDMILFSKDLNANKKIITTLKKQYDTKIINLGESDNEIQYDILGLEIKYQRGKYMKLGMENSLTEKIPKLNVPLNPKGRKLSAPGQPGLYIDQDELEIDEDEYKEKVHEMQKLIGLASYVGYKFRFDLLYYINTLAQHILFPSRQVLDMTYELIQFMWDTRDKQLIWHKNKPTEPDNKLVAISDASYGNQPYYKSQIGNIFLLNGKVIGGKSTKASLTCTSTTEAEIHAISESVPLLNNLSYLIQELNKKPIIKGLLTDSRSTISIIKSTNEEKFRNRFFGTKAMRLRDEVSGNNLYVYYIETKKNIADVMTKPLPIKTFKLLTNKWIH
Chain of Ty1 RT (Saccharomyces cerevisiae, UniProt P47098, D1428N) (P47098 1103-1755 D1428N): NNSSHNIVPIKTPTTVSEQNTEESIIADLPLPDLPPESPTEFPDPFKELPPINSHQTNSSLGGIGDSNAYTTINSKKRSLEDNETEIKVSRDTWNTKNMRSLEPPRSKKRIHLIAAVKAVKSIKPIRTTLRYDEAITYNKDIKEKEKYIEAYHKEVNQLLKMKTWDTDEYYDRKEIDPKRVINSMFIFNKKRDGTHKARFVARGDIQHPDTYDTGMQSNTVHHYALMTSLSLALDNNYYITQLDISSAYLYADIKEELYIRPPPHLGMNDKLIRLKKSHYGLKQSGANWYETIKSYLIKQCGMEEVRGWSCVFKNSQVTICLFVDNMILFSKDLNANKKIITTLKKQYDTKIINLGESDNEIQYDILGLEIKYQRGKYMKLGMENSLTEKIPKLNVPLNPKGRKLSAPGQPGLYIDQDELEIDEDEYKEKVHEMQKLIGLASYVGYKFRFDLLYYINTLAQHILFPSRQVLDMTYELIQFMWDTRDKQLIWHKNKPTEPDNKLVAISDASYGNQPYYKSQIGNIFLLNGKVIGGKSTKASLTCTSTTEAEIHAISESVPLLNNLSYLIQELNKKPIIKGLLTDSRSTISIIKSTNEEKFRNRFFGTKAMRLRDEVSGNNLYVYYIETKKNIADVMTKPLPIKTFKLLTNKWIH

As a reminder, the Kd is the constant that tells how readily two partners part at equilibrium. Read a high Kd as a looser complex. In the case of `[Mg+2]` [Mg^2+, MgCl2], the results for the Kd in test [1] and in test [3] were 6.3 ± 0.2 mM and 0.13 ± 0.04 mM, respectively. For the same molecule, the figures for the “Proposed divalent cation binding affinity, A site” value in test [1] (D211N Ty1 RT) and in test [3] (Wt. Ty1 RT) were “very low affinity for Mg^2+” and “very high affinity for Mg^2+”, respectively. For the same molecule, the “Proposed divalent cation binding affinity, B site” value in test [1] (D211N Ty1 RT) and in test [3] (Wt. Ty1 RT) was “low affinity for Mg^2+” each time. The “n (Hill coefficient) of metal activation” value in test [1] (setting [9]) stood at 2.1 ± 0.1; in test [3] (setting [10]), 1.7 ± 0.1. In test [2], the “Proposed activity of Ty1 RT, same metal at A site and B site” value is “high”.

As to `[Ca+2].[Cl-].[Cl-]` [Ca^2+, CaCl2, reference compound], the “Inhibition of Ty1 RT in control competition experiment” value in test [3] (Ca^2+ substituted for Mn^2+, in presence of Mg^2+ (FIG. 4C)) is on record as “no significant inhibition”.

For `[Mn+2]` [Mn^2+, MnCl2], the Kd is 0.02 ± 0.003 mM in test [1] and 19.9 ± 1.6 mM in test [3]. In addition, the “Ratio (Mn^2+ concentration to Mg^2+ concentration) at which the increase in activity peaks” value in test [1] (D211N RT, Mn^2+ added in presence of Mg^2+) was determined as 0.02. Moreover, the “Proposed divalent cation binding affinity, A site” value in test [1] (D211N Ty1 RT) is “very high affinity for Mn^2+”; in test [3] (Wt. Ty1 RT), “very low affinity for Mn^2+”. The “Proposed divalent cation binding affinity, B site” value in test [1] (D211N Ty1 RT) and in test [3] (Wt. Ty1 RT) was “high affinity for Mn^2+” in each case. For the same molecule, the “kcat of metal activation” value in test [1] (setting [9]) turned out to be 0.000158 ± 8.3e-06 s⁻¹; in test [3] (setting [10]), 0.000156 ± 1.9e-05 s⁻¹. Further, the “n (Hill coefficient) of metal activation” value is 2.1 ± 0.1 in test [1] (setting [9]) and 2.3 ± 0.2 in test [3] (setting [10]). Moreover, the “Inhibition by increasing concentrations of Mn2+” value in test [1] (D211N Ty1 RT, printed: in the presence of excess Mn^2+ (FIG. 4D)) is recorded as “not inhibited”. The “Proposed activity of Ty1 RT, Mn^2+ at A site and Mg^2+ at B site” value in test [4] is recorded as “high”. Besides, the “Proposed activity of Ty1 RT, Mg^2+ at A site and Mn^2+ at B site” value in test [2] (Mn^2+ at B site, Mg^2+ at A site, unlikely for D211N) is “low”. Further, the “Proposed activity of Ty1 RT, same metal at A site and B site” value in test [2] is “low”. The “Mn^2+-dependent inhibition with DNA template” value is “Mn^2+-dependent inhibition was also observed” in test [3] (purified recombinant Ty1 RT, poly(dC) substituted for poly(rC)) and “Mn^2+-dependent inhibition was also observed” in test [8] (poly(dC) substituted for poly(rC)). For the same molecule, the “Ratio of Mn^2+ to Mg^2+ that reduced RT activity by 50%” value in test [3] (purified recombinant Ty1 RT, poly(rC) template, excess Mg^2+) was 1×10^−3; in test [7] it was 7×10^−4; in test [8] (RNA-directed DNA polymerization, poly(rC) template, excess Mg^2+), 8×10^−3. In test [5], the “Mn^2+-dependent inhibition of RT activity” value is reported as “Even more dramatic Mn^2+-dependent inhibition”. The “Effect of Mn^2+ on RT activity” value in test [6] was “Increased activity at low Mn^2+ concentrations”.
